Results: US9186356B2, “Methods for treating frontotemporal lobar degeneration with ubiquitinated inclusions (FTLD-U)” (Academia Sinica, priority 2011, dated 2015)

Key:
FTLD-U mice = test: Motor function of FTLD-U mice treated with other autophagy inducers (FIG. 5); assay type: in vivo; settings: tamoxifen 80 mg/Kg s.c. once per day one week, carbamazepine 50 mg/Kg i.p. once per day two weeks, spermidine 50 mg/Kg i.p. once per day one week
Protocol: Other autophage inducers for administration to the FTLD-U mice include tamoxifen, carbamazepine, calpastatin, minoxidial, spermidine and trehalose. […] Carbamazepine can lower inositol and IP3 levels. Calpastatin is a calpain inhibitor. Minoxidial is a K^+ATP channel opener. Spermidine can decrease ROS and increases beclin 1. The effect of trehalose is unknown. Tamoxifen (80 mg/Kg) was administered via subcutaneous injection, once per day for one week. carbamazepine (50 mg/Kg) was administered i.p. once per day for two weeks. Spermidine (50 mg/Kg) was administered i.p. once per day for one week.

ALS mice (SOD1G93A) = settings: cited from earlier work

| Structure (SMILES) | motor function deficits (FTLD-U mice) | mitochondria impairment (ALS mice (SOD1G93A)) |
| --- | --- | --- |
| NC(=O)N1c2ccccc2C=Cc2ccccc21 [carbamazepine] | rescued the motor function deficits | – |
| CO[C@H]1C[C@@H]2CC[C@@H](C)[C@@](O)(O2)C(=O)C(=O)N2CCCC[C@H]2C(=O)O[C@H]([C@H](C)C[C@@H]2CC[C@@H](O)[C@H](OC)C2)CC(=O)[C@H](C)/C=C(\C)[C@@H](O)[C@@H](OC)C(=O)[C@H](C)C[C@H](C)/C=C/C=C/C=C/1C [rapamycin] | – | more server mitochondria impairment |
| NCCCCNCCCN [spermidine] | rescued the motor function deficits | – |
| CC/C(=C(\c1ccccc1)c1ccc(OCCN(C)C)cc1)c1ccccc1 [tamoxifen] | rescued the motor function deficits | – |
